Measurements: patent US20180193287A1, “HOPS-BASED SUBSTANCE AND USE OF THE SUBSTANCE” (John I. Haas, Inc., priority 2015, published 2018)

Test system: acute liver damage in mice as a result of alcohol
Test: acute liver damage in mice as a result of alcohol, liver tissue triglyceride (FIG. 3)
Type: in vivo
Details: alcohol by gavage 6 g/kg body weight, XN 5 mg/kg and/or IAA 25 mg/kg body weight applied simultaneously, liver removed after 12 hours, P<0.05
Procedure: A model used was acute liver damage in mice as a result of alcohol. Alcohol was applied to the mice by gavage (6 g/kg body weight). Furthermore, xanthohumol (XN; 5 mg/kg body weight), iso-alpha-acid (IAA; 25 mg/kg body weight) and a combination of xanthohumol (5 mg/kg body weight) and iso-alpha-acid (25 mg/kg body weight) were simultaneously applied in the experimental groups. After 12 hours the animals were sacrificed, the liver tissue was removed, and the triglyceride (TG) […] therein was determined. A control group of untreated mice (no-Alc) was also tested. In the “alcohol group”, a significant increase in TG can be seen in comparison with the “non-alcohol group”.
Again, the significance level is P<0.05. CTR stands for a group of alcohol-treated mice without addition of xanthohumol, iso-alpha-acid or a combination of xanthohumol and iso-alpha-acid.

Row | SMILES | triglyceride (TG) content of liver tissue versus alcohol group
1 | CC(C)=CCC(=O)[C@@]1(O)C(O)=C(C(=O)CC(C)C)C(=O)C1CC=C(C)C (stereo partly drawn) [iso-alpha-acid] | does not differ significantly
2 | COc1cc(O)c(CC=C(C)C)c(O)c1C(=O)/C=C/c1ccc(O)cc1 [xanthohumol] | does not differ significantly
